Experimental findings from patent publication US10183944B2 (Asana Biosciences, LLC, priority 2011, dated 2019) are described below.

In test [1] the target is Syk (356-635 amino acids) catalytic domain (Homo sapiens (Human), UniProt P43405). Put plainly: Inhibition of enzymatic Syk kinase activity (radiometric). Format: biochemical. The following applies: read-out: IC50 Syk. In a few lines:
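Radiometric filter-binding format: 32P transfer from γ-32P-ATP onto pG4T, scintillation-counted after acid washes of P81 paper. Syk kinase domain (356-635), 0.035–7.5 ng per reaction, was exposed to compound for 30 minutes at room temperature before a 10-minute, 30° C. reaction with ATP (100 μM stock). Inhibition derived from counts with versus without compound.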

The next test concerns the target JAK2 (Homo sapiens (Human), UniProt O60674). As to the kind of experiment: Inhibition of enzymatic JAK2 kinase activity (TR-FRET). Format: biochemical. Conditions: read-out: IC50 JAK. In short, it runs like this:
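TR-FRET read-out (Eu antibody donor, Ulight poly Glu-Tyr acceptor, 665/615 nm ratio) after a 60 min RT kinase reaction with ATP, begun following 30 min compound–enzyme preincubation. Stopped by EDTA; inhibition expressed as 100 minus % activity of positive control.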

Where a name gives a salt, the structure may show the parent alone.

Sequence of JAK2 (O60674 808-1132): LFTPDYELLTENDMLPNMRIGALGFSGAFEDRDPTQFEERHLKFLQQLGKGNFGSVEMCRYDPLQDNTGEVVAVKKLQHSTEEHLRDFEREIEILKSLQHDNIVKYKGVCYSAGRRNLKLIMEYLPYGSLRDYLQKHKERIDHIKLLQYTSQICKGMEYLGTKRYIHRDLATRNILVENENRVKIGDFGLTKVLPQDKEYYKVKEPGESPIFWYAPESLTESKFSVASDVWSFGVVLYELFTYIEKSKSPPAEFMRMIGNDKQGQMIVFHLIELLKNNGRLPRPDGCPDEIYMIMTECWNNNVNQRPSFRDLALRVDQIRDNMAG

Consider `N#CCC1CCN(c2nc(Nc3ccc(OCCN4CCNCC4)cc3)c3c(=O)[nH]ncc3n2)CC1` [Example 150, 2-(1-(5-oxo-4-((4-(2-(piperazin-1-yl)ethoxy)phenyl)amino)-5,6-dihydropyrimido[4,5-d]pyridazin-2-yl)piperidin-4-yl)acetonitrile], for which the IC50 (commonly the concentration needed to halve the response being measured) is under 50 nM in test [1] and over 100 nM at JAK2.
As for `O=c1[nH]ncc2nc(-c3ccccc3)nc(Nc3ccc(OCCN4CCNCC4)cc3)c12` [Example 152, 2-phenyl-4-((4-(2-(piperazin-1-yl)ethoxy)phenyl)amino)pyrimido[4,5-d]pyridazin-5(6H)-one], the IC50 is under 50 nM in test [1] and over 100 nM at JAK2.
In the same order, the values of `CC1CCN(c2nc(Nc3ccc(OCCN4CCNCC4)cc3)c3c(=O)[nH]ncc3n2)CC1` [Example 156, 2-(4-methylpiperidin-1-yl)-4-((4-(2-(piperazin-1-yl)ethoxy)phenyl)amino) pyrimido[4,5-d]pyridazin-5(6H)-one hydrochloride] are under 50 nM and under 100 nM.
Turning to `O=C1CN(c2ccc(Nc3nc(N4CCCCCC4)nc4cn[nH]c(=O)c34)cc2)CCN1` [Example 165, 2-(azepan-1-yl)-4-((4-(3-oxopiperazin-1-yl)phenyl)amino)pyrimido[4,5-d]pyridazin-5(6H)-one], the IC50 in test [1] was under 100 nM; on JAK2, under 10 nM.
Turning to `CN(C)CCOc1ccc(Nc2nc(N3CCCCCC3)nc3cn[nH]c(=O)c23)cc1` [Example 167, 2-(azepan-1-yl)-4-((4-(2-(dimethylamino)ethoxy)phenyl)amino)pyrimido[4,5-d]pyridazin-5(6H)-one], the results for the IC50 (in test [1]; on JAK2) were under 50 nM and under 10 nM, respectively.
As for `O=c1[nH]ncc2nc(N3CCCCCC3)nc(Nc3ccc(OCCC4CCNCC4)cc3)c12` [Example 168, 2-(azepan-1-yl)-4-((4-(2-(piperidin-4-yl)ethoxy)phenyl)amino)pyrimido[4,5-d]pyridazin-5(6H)-one], the half-inhibitory concentration (IC50) (in test [1]; on JAK2) was under 50 nM throughout.
Take `O=c1[nH]ncc2nc(N3CCCCC3)nc(Nc3ccc(OCCN4CCNCC4)nc3)c12` [Example 181, 4-((6-(2-(piperazin-1-yl)ethoxy)pyridin-3-yl)amino)-2-(piperidin-1-yl)pyrimido[4,5-d]pyridazin-5(6H)-one]: the IC50 (in test [1]; on JAK2) was over 100 nM throughout.
For `O=c1[nH]ncc2nc(N3CCCCCC3)nc(Nc3ccc(OCCN4CCNCC4)nc3)c12` [Example 182, 2-(azepan-1-yl)-4-((6-(2-(piperazin-1-yl)ethoxy)pyridin-3-yl)amino)pyrimido[4,5-d]pyridazin-5(6H)-one], the IC50 in test [1] is under 100 nM; on JAK2, under 10 nM.
`CC(C)N(CCOc1ccc(Nc2nc(N3CCCCCC3)nc3cn[nH]c(=O)c23)cc1)C(C)C` [Example 188, 2-(azepan-1-yl)-4-((4-(2-(diisopropylamino)ethoxy)phenyl)amino) pyrimido[4,5-d]pyridazin-5(6H)-one]: the concentration for half-maximal inhibition (IC50) (in test [1]; at JAK2) was under 50 nM each time.
As for `O=c1[nH]ncc2nc(N3CCCCCC3)nc(Nc3ccc(N4CCC(CCO)CC4)cc3)c12` [Example 195, 2-(azepan-1-yl)-4-((4-(4-(2-hydroxyethyl)piperidin-1-yl)phenyl)amino) pyrimido[4,5-d]pyridazin-5(6H)-one], the IC50 (in test [1]; at JAK2) was under 10 nM throughout.
On to `N#CCC1CCN(c2nc(Nc3ccc(N4CCC(CCO)CC4)cc3)c3c(=O)[nH]ncc3n2)CC1` [Example 196, 2-(1-(4-((4-(4-(2-hydroxyethyl)piperidin-1-yl)phenyl)amino)-5-oxo-5,6-dihydropyrimido[4,5-d]pyridazin-2-yl)piperidin-4-yl)acetonitrile], for which the half-maximal inhibitory concentration (IC50) (in test [1]; on JAK2) was under 10 nM each time.
As for `CCN1CCN(CCc2ccc(Nc3nc(N4CCC(CC#N)CC4)nc4cn[nH]c(=O)c34)cc2)CC1` [Example 197, 2-(1-(4-((4-(2-(4-ethylpiperazin-1-yl)ethyl)phenyl)amino)-5-oxo-5,6-dihydropyrimido[4,5-d]pyridazin-2-yl)piperidin-4-yl)acetonitrile], the IC50 (in test [1]; on JAK2) was under 10 nM each time.
On to `O=c1[nH]ncc2nc(N3CCCCCC3)nc(Nc3ccc(CCN4CCNCC4)cc3)c12` [Example 198, 2-(azepan-1-yl)-4-((4-(2-(piperazin-1-yl)ethyl)phenyl)amino)pyrimido[4,5-d]pyridazin-5(6H)-one], for which the IC50 (in test [1]; on JAK2) was under 10 nM throughout.
In the case of `NCCOc1ccc(Nc2nc(N3CCCCCC3)nc3cn[nH]c(=O)c23)cc1` [Example 199, 4-((4-(2-aminoethoxy)phenyl)amino)-2-(azepan-1-yl)pyrimido[4,5-d]pyridazin-5(6H)-one], the IC50 (in test [1]; at JAK2) was under 10 nM in each case.
Take `O=c1[nH]ncc2nc(N3CCCCCC3)nc(Nc3ccc(N4CCC(CO)CC4)cc3)c12` [Example 202, 2-(azepan-1-yl)-4-((4-(4-(hydroxymethyl)piperidin-1-yl)phenyl)amino) pyrimido[4,5-d]pyridazin-5(6H)-one]: the IC50 was under 50 nM in test [1] and under 10 nM at JAK2.
Regarding `O=c1[nH]ncc2nc(N3CCCCCC3)nc(Nc3ccc(OCCN4CCC(CO)CC4)cc3)c12` [Example 203, 2-(azepan-1-yl)-4-((4-(2-(4-(hydroxymethyl)piperidin-1-yl)ethoxy)phenyl)amino)pyrimido[4,5-d]pyridazin-5(6H)-one], the IC50 is under 50 nM in test [1] and under 10 nM on JAK2.
`N#CCC1CCN(c2nc(Nc3ccc(N4CCC(CCCO)CC4)cc3)c3c(=O)[nH]ncc3n2)CC1` [Example 205, 2-(1-(4-((4-(4-(3-hydroxypropyl)piperidin-1-yl)phenyl)amino)-5-oxo-5,6-dihydropyrimido[4,5-d]pyridazin-2-yl)piperidin-4-yl)acetonitrile]: the IC50 (in test [1]; at JAK2) was under 50 nM each time.
As for `N#CCN1CCN(c2ccc(Nc3nc(N4CCCCCC4)nc4cn[nH]c(=O)c34)cc2)CC1` [Example 206, 2-(4-(4-((2-(azepan-1-yl)-5-oxo-5,6-dihydropyrimido[4,5-d]pyridazin-4-yl)amino)phenyl)piperazin-1-yl) acetonitrile], the IC50 in test [1] is under 50 nM; at JAK2 it was under 10 nM.
Consider `N#CCC1CCN(c2nc(Nc3ccc(N4CCN(CC#N)CC4)cc3)c3c(=O)[nH]ncc3n2)CC1` [Example 207, 2-(1-(4-((4-(4-(cyanomethyl)piperazin-1-yl)phenyl)amino)-5-oxo-5,6-dihydropyrimido[4,5-d]pyridazin-2-yl)piperidin-4-yl)acetonitrile], for which the IC50 (in test [1]; at JAK2) was under 10 nM throughout.
In the case of `O=c1[nH]ncc2nc(N3CCCCCC3)nc(Nc3ccc(N4CCC(O)CC4)nc3)c12` [Example 217, 2-(azepan-1-yl)-4-((6-(4-hydroxypiperidin-1-yl)pyridin-3-yl)amino)pyrimido[4,5-d]pyridazin-5(6H)-one], the IC50 (in test [1]; on JAK2) was under 50 nM throughout.
Take `N#CCC1CCN(c2nc(Nc3ccc(N4CCN(CCC(=O)O)CC4)cc3)c3c(=O)[nH]ncc3n2)CC1` [Example 220, 3-(4-(4-((2-(4-(cyanomethyl)piperidin-1-yl)-5-oxo-5,6-dihydropyrimido[4,5-d]pyridazin-4-yl)amino)phenyl)piperazin-1-yl)propanoic acid]: the IC50 (in test [1]; on JAK2) was under 10 nM each time.
Take `O=c1[nH]ncc2nc(N3CCCCCC3)nc(Nc3ccc(N4CCNCC4)nc3)c12` [Example 221, 2-(azepan-1-yl)-4-((6-(piperazin-1-yl)pyridin-3-yl)amino)pyrimido[4,5-d]pyridazin-5(6H)-one]: the IC50 in test [1] is under 50 nM; on JAK2 it was under 10 nM.
Turning to `O=c1[nH]ncc2nc(N3CCCCCC3)nc(Nc3ccc(-c4nnn(CCO)n4)cc3)c12` [Example 222, 2-(azepan-1-yl)-4-((4-(2-(2-hydroxyethyl)-2H-tetrazol-5-yl)phenyl)amino) pyrimido[4,5-d]pyridazin-5(6H)-one], the values for the IC50 (in test [1]; on JAK2) were under 100 nM and under 50 nM, respectively.
In the same order, the values of `CC(C)(O)C(=O)N1CCN(c2ccc(Nc3nc(N4CCC(CC#N)CC4)nc4cn[nH]c(=O)c34)cc2)CC1` [Example 223, 2-(1-(4-((4-(4-(2-hydroxy-2-methylpropanoyl)piperazin-1-yl)phenyl)amino)-5-oxo-5,6-dihydropyrimido[4,5-d]pyridazin-2-yl)piperidin-4-yl) acetonitrile] are under 10 nM and under 10 nM.
Take `CCN(CC)CCOc1ccc(Nc2nc(N3CCC(CC#N)CC3)nc3cn[nH]c(=O)c23)cc1` [Example 224, 2-(1-(4-((4-(2-(diethylamino)ethoxy)phenyl)amino)-5-oxo-5,6-dihydropyrimido[4,5-d]pyridazin-2-yl)piperidin-4-yl)acetonitrile]: the IC50 (in test [1]; on JAK2) was under 50 nM in each case.
As for `O=c1[nH]ncc2nc(N3CCCCCC3)nc(Nc3ccc(-c4nn[nH]n4)cc3)c12` [Example 227, 4-((4-(2H-tetrazol-5-yl)phenyl)amino)-2-(azepan-1-yl)pyrimido[4,5-d]pyridazin-5(6H)-one], the results for the IC50 (in test [1]; on JAK2) were under 50 nM and under 10 nM, respectively.
As to `CCN1CCN(c2ccc(Nc3nc(N4CCCCCC4)nc4cn[nH]c(=O)c34)cn2)CC1` [Example 229, 2-(azepan-1-yl)-4-((6-(4-ethylpiperazin-1-yl)pyridin-3-yl)amino)pyrimido[4,5-d]pyridazin-5(6H)-one], the results for the IC50 (in test [1]; at JAK2) were under 50 nM and under 10 nM, respectively.
